Measurements taken from patent US6649628B1, “N-[2-hydroxy-3-(1-piperidinyl)propoxy]pyridine-1-oxide-3-carboximidoyl chloride and its use in the treatment of insulin resistance” (Biorex Kutato es Fejleszto RT, priority 1999, dated 2003).
Read-outs that look alike come from different tables or passages of the source.

What was measured:
[1] = system: obese, insulin resistant, hyperinsulinaemic Zucker fa/fa rats; test: Experiment 1: carbohydrate metabolism (fasting glucose/insulin, ip glucose tolerance test) after 2-month treatment; format: in vivo, rat
Procedure: In the experiments so-called Zucker fa/fa rats (Charles River Laboratories Inc.) were used. In […] animals, obesity, insulin resistance, high blood insulin level, impaired glucose tolerance and hypertriglyceridaemia result from hypothalamic leptin receptor mutation. Due to the above characteristics, this is an accepted model of early type 2 diabetes.
The animals were placed in individual metabolic cages for 24 hours at the beginning of the study, and after 1 or 2 months of treatment for 24 hours of urine collection.
The animals were given either the test substances or physiological saline solution by gavage for control once a day between weeks 14-22.
Biochemical parameters of the blood and the urine were measured by a Kodak Ectachem 700 automatic analyzer. The total protein level of the urine was determined spectrophotometrically with the use of Bradford staining (Hitachi U-3200) at 595 nm. The insulin concentration of the serum was determined by the RIA method, using rat anti-insulin antibodies.
Systolic, diastolic blood pressure and heart rate were measured weekly on the tails of the rats (so-called tail cuff method) by a Letica 200 automatic analyzer. After two months of treatment, the level of glucose tolerance was determined by the intraperitoneal glucose tolerance test (2 g/kg ip.).

STZ-diabetic Wistar rats [2] = test: Experiment 2: peripheral neuropathy, nerve conduction velocity after 1-month treatment; format: in vivo, rat; conditions: for MNCV / MNCV improvement / SNCV / SNCV improvement: 1 month
Description: (Graphpad Instat, San Diego, Calif.).

STZ-diabetic Wistar rats [3] = test: Experiment 3: diabetic autonomous neuropathy after 1 month of treatment; format: in vivo, rat; conditions: daily 20 mg/kg single dose
Procedure: The experiments were performed under anesthesia achieved by administering 60 mg/kg ip. pentobarbital sodium (Nembutal, Sanofi, Phylaxia). After this, an intratracheal tube or polyethylene canula was inserted into the fermoral artery and vein. The arterial catheter was connected to a pressure transducer for the simultaneous measurement of systolic and diastolic blood pressure (online automatic measuring and forwarding system, with a Haemosys computer program). After 20 minutes of equillibration period, the following substances were administered intravenously: Noradrenalin, 5 μg/kg iv.—Isoproterenol 0.4 μg/kg iv.—N.vagus stimulation (2 V, duration: 500 μsec, delay: 1 msec). The effects of the substances were monitored for 10 minutes.

STZ-diabetic Wistar rats [4] = test: Experiment 4: histological alterations of early diabetic retinopathy after 1 month of treatment; format: in vivo, rat
Procedure: Photographs and slide positives were prepared of representative samples.
The given value for negative cases was 0.1. A Box and Whisker plot graph was also prepared.

STZ-diabetic Wistar rats [5] = test: Experiment 5: urinary protein loss caused by diabetic nephropathy after 1-month treatment; format: in vivo, rat
Procedure: For the 24-hour period of urine collection, the animals were placed in individual metabolic cages. During this period they were given water ad libitum but no food. The latter measure was necessary to prevent possible contamination by the protein content of the food. Urine was collected in calibrated glass containers, in which Thymol crystal (Reanal 3135-1-08-38) was placed to prevent bacterial contamination.
Before measurement, the urine samples were centrifuged (2500 rpm) and filtered through a paper filter (Whatmann 1). If necessary, they were stored at −20° C. until measurement.
The total protein content of the urine was determined by the Bradford staining method (Sigma B-6916, St. Louis, Mo.), and color intensity was detected by spectrophotometry (Hitachi-U-3200).

STZ-diabetic rats = conditions: 2 month; for effect on lenticular and retinal pathologic histological alterations / effect on retinal histological alterations only: Compound-A 10 mg/kg, enantiomers 5 mg/kg daily
Procedure: After anesthesia (Calypsovet, 125 mg/kg. Ip., Richter Rt., Hungary), the eyes were enucleated and fixed in 4% formaldehyde dissolved in a phosphate buffer (pH:7.4).
Afterwards, they were embedded in paraffin (Medim DDM P800, embedding center: Lignifer L-120-92-014, stainer: Shandon Eliott, Microtome: is Leica SM 2000 R, Microscope: Jenaval Karl Zeiss Jena). Several 6 micron sections of the eyes were prepared, and hematoxilyn/eosine (Fluka) and PAS (periodic acid-Schiff, Fluka) staining were used. The light-microscopic evaluation was performed at a magnification of 40× and 100×. Photographs and slide positives were prepared of representative samples.
The histological evaluation was performed on coded samples, the group division was unknown for the examiner. Pathological deviations of the retina were graded on a scale of 0-20, while those of the lens on a scale of 0-3.
The statistical calculations were done with the Statistica 4.5 (SatSoft, USA) program. The given value for negative cases was 0.1. A Box and Whisker plot graph was also prepared.
For each group in the experiment, the mean±SE (Standard Error) values were calculated, and the comparison was done with the help of a non-parametric Mann-Whitney U-test (Graphpad Instat, San Diego, Calif.).

STZ-diabetic Wistar rats [6] = system: STZ-diabetic Wistar rats
Description: The experiments were accomplished on Wistar rats with a body weight of 320-350 g. Diabetes was induced and checked as described in Experiment 2. In the test animals having been diabetic for 3 weeks the left nervus ischidiacus was injured by freezing and the right side one was used as non-injured control. The regeneration was observed by monitoring the signals of the flexor reflex provoked by irritation of the sole that is areas under curve (AUC) of the electromyogram transferred from the forward tibial muscle. For the stimulation and detection the system described in Experiment 2 was used. Single daily doses of 10 mg/kg of Compound-A and 5 mg/kg of A(+) enantiomer were administred for 5 weeks after the injury by freezing.

STZ-diabetic Wistar rats [7] = test: Experiment 6: Compound-A and enantiomers, nerve conduction velocity after 1 month treatment; conditions: for effect on motor (MNCV) and sensory (SNCV) nerve conduction velocity deficits: Compound-A 10 mg/kg, enantiomers 5 mg/kg daily
Procedure: In the experiments, male Wistar rats were used (Charles River Laboratories Inc.). At the start of the experiment, their weights were 340-370 g. Diabetes was induced by the intravenous administration of a single 45 mg/kg dose of streptozotocine (STZ, Sigma, St. Louis, Mo.) dissolved in physiological saline solution. The development of diabetes was checked after 1 day by a blood glucose test, accepting a value over 15 mmol/l.
The test and reference substances were administered p.os to the animals once a day.
For the determination of nerve conduction velocity (NCV), the method of Stanley, modified by De Konig and Gispen was used. The animals were anesthetized by the simultaneous administration of Hyponorm (1 mg/kg ip., Janssen, Tilburg, Denmark), fluanisone (10 mg/ml), and phentanyl citrate (0.2 mg/ml). Afterwards, the left ischiadicus and tibial nerves were stimulated at standard points. Supramaximal stimulus (square impulse, 0.03 ms) was used with a platinum needle electrode, through a Nihon-Kohden (model SEN-1104, Japan) stimulator. The electromyogram (EMG) transferred from the sole muscles and intensified by a myograph (Elema-Schonander, Stockholm, Sweden) was analyzed further by the Matlab for Windows (Mathwork Inc, UK) program. The extent of NCV damage caused by diabetes was expressed in m/s. The effectiveness of the treatment was compared to this in terms of percentage (%). The statistical calculations were done by unpaired t-test or single-criterion ANOVA test (along with the Newman-Keuls post hoc test).

[8] = system: high fat (HF) diet insulin resistant male Wistar rats; test: Experiment 8: in vivo insulin-dependent glucose uptake (euglycaemic glucose clamp) in dietary induced insulin resistance
Procedure: Male Wistar rats (Charles River Laboratories Inc.) with an initial body weight of 300-350 g were used in the experiments.
Insulin resistance was induced by dietary manipulation: animals were given a high fat (HF) diet for 3 weeks. In the HF diet the proportion of saturated fats were dominant and gave 70% of total daily caloric intake.
Briefly: the fasting blood glucose concentration in different animal groups must be identical. Experiments were carried out in conscious, freely moving, chronicly canulated rats: first an insulin infusion (6.4 mU/kg/min) was started, followed by a parallel-run continuous glucose infusion to maintain blood glucose concentrations in the euglycaemic range. After stabilisation the quantity of infused glucose was measured for a 90 min. period (glucose infusion rate=GIR, mg/kg/min) which is the quantitative parameter of insulin sensitivity.

[9] = 20 mg/kg p.os daily, 2-month treatment
[10] = intraperitoneal glucose tolerance test
[11] = ip glucose tolerance test 2 g/kg, AUC 0-60 minutes, 20 mg/kg p.os daily, 2-month treatment

O=C(O)/C=C\C(=O)O.[O-][n+]1cccc(C(Cl)=NOCC(O)CN2CCCCC2)c1 (stereo not drawn) [Compound A, N-[2-hydroxy-3-(1-piperidinyl)-propoxy]-pyridine-1-oxide-3-carboximidoyl chloride (Z)-2-butenedioate (1:1)]
effect on fasting blood glucose ([1]; 20 mg/kg p.os daily): significantly reduced
effect on fasting insulin concentration ([1]; 20 mg/kg p.os daily): significantly reduced
reduction of fasting insulin concentration ([1]; 20 mg/kg p.os daily): approx. 50%
Fasting Blood Glucose (mean ± SE) [1, 9]: 8.267 ± 0.436 mmol/L
Fasting Insulin (mean ± SE) [1, 9]: 11.176 ± 1.955 ng/mL
effect on AUC of insulin [1, 10]: reduced it significantly, to the same level as the Lean control
effect on area under the blood glucose curve (AUC) [1, 10]: neither bimoclomol, nor Compound A effected
Blood Glucose (AUC) (mean ± SE) [1, 11]: 1418.40 ± 194.57
Insulin (AUC) (mean ± SE) [1, 11]: 790.35 ± 166.08
effect on peripheral insulin resistance ([1]; summary of Experiment 1): significantly reduces
MNCV (STZ-diabetic Wistar rats [2]; 5 mg/kg p.os once a day): 57.4 ± 0.3 m/s
MNCV improvement (STZ-diabetic Wistar rats [2]; 5 mg/kg p.os once a day): 79.5%
SNCV (STZ-diabetic Wistar rats [2]; 5 mg/kg p.os once a day): 58.4 ± 0.3 m/s
SNCV improvement (STZ-diabetic Wistar rats [2]; 5 mg/kg p.os once a day): 77.6%
MNCV (STZ-diabetic Wistar rats [2]; 10 mg/kg p.os once a day): 59.2 ± 0.3 m/s
MNCV improvement (STZ-diabetic Wistar rats [2]; 10 mg/kg p.os once a day): 90.4%
SNCV (STZ-diabetic Wistar rats [2]; 10 mg/kg p.os once a day): 60.4 ± 0.4 m/s
SNCV improvement (STZ-diabetic Wistar rats [2]; 10 mg/kg p.os once a day): 89.0%
MNCV (STZ-diabetic Wistar rats [2]; 20 mg/kg p.os once a day): 59.1 ± 0.3 m/s
MNCV improvement (STZ-diabetic Wistar rats [2]; 20 mg/kg p.os once a day): 89.8%
SNCV (STZ-diabetic Wistar rats [2]; 20 mg/kg p.os once a day): 60.1 ± 0.3 m/s
SNCV improvement (STZ-diabetic Wistar rats [2]; 20 mg/kg p.os once a day): 87.4%
effect on motor (MNCV) and sensor (SNCV) nerve conduction velocities (STZ-diabetic Wistar rats [2]; bimoclomol 20 mg/kg, Compound A 5 mg/kg once a day): significantly improved
effect of an increase in the dose over 10 mg/kg on NCV improvement (STZ-diabetic Wistar rats [2]; dose over 10 mg/kg): did not increase the effect
effect on pathological deviations resulting from autonomous neuropathy (STZ-diabetic Wistar rats [3]): significantly reduced
Heart left ventricular hypertrophy (deviation due to diabetes) (STZ-diabetic Wistar rats [3]; 1 month): ↑ (corrects)
Increased negative chronotropic effect on vagus stimulation (STZ-diabetic Wistar rats [3]; 1 month): ↑ (corrects)
Reduced hypotension on vagus stimulation (STZ-diabetic Wistar rats [3]; 1 month): ↑ (corrects)
Reduced IS induced systemic arterial hypotension (STZ-diabetic Wistar rats [3]; 1 month, isoproterenol 0.4 μg/kg iv.): — (ineffective)
Score values Improvement % (STZ-diabetic Wistar rats [4]; 5 mg/kg daily, 1 month): 74.5%
Score values Mean ± SE (retinopathy histology) (STZ-diabetic Wistar rats [4]; 5 mg/kg daily, 1 month): 4.028 ± 0.961
comparison of the two compounds versus diabetic, non-treated animals (STZ-diabetic Wistar rats [4]; Compound A 5 mg/kg vs bimoclomol 20 mg/kg): statistically more effective
effect on diabetic retinopathy induced pathological histological alterations (STZ-diabetic Wistar rats [4]; Compound A 5 mg/kg, bimoclomol 20 mg/kg daily, 1 month): significantly improved
24-hour Urinary Protein Loss Mean ± SE (STZ-diabetic Wistar rats [5]; 10 mg/kg daily, 1 month, series 2): 12.06 ± 1.70 mg/24 h
effect on STZ-diabetes-induced urinary protein loss (STZ-diabetic Wistar rats [5]; Bimoclomol 20 mg/kg, Compound-A 10 mg/kg, (+) enantiomer 5 mg/kg daily): non-significantly reduced
Scores lenticular + retinal improvement % (STZ-diabetic rats; 10 mg/kg daily): 34.7%
Scores lenticular + retinal mean ± SE (STZ-diabetic rats; 10 mg/kg daily): 4.55 ± 0.69
Scores retinal improvement % (STZ-diabetic rats; 10 mg/kg daily): 65.8%
Scores retinal mean ± SE (STZ-diabetic rats; 10 mg/kg daily): 1.80 ± 0.75
effect on lenticular and retinal pathologic histological alterations (STZ-diabetic rats): not significant
effect on retinal histological alterations only (STZ-diabetic rats): effective
neuroregeneration of the non-freezed nerves (STZ-diabetic Wistar rats [6]; 10 mg/kg daily for 5 weeks): 44%
extent of neuroregeneration of the nerve injured by freezing (STZ-diabetic Wistar rats [6]; 10 mg/kg daily for 5 weeks after injury, 5. week, untreated 63%): 73%
MNCV (STZ-diabetic Wistar rats [7]; 10 mg/kg daily, 1 month): 59.3 ± 0.3 m/s
MNCV improvement (STZ-diabetic Wistar rats [7]; 10 mg/kg daily, 1 month): 78.9%
SNCV improvement (STZ-diabetic Wistar rats [7]; 10 mg/kg daily, 1 month): 79.2%
effect on motor (MNCV) and sensory (SNCV) nerve conduction velocity deficits (STZ-diabetic Wistar rats [7]): significantly improved

O=C(O)/C=C\C(=O)O.[O-][n+]1cccc(C(Cl)=NOC[C@@H](O)CN2CCCCC2)c1 [A(−), (−)-/S/-N-[2-hydroxy-3-(1-piperidinyl)-propoxy]-pyridine-1-oxide-3-carboximidoyl chloride (Z)-2-butenedioate (1:1)]
Scores lenticular + retinal improvement % (STZ-diabetic rats; 5 mg/kg daily): 10.3%
Scores lenticular + retinal mean ± SE (STZ-diabetic rats; 5 mg/kg daily): 6.02 ± 1.09
Scores retinal improvement % (STZ-diabetic rats; 5 mg/kg daily): 21.7%
Scores retinal mean ± SE (STZ-diabetic rats; 5 mg/kg daily): 3.53 ± 1.07
effect on lenticular and retinal pathologic histological alterations (STZ-diabetic rats): not effective
effect on retinal histological alterations only (STZ-diabetic rats): not significant
MNCV (STZ-diabetic Wistar rats [7]; 5 mg/kg daily, 1 month): 53.1 ± 0.7 m/s
MNCV improvement (STZ-diabetic Wistar rats [7]; 5 mg/kg daily, 1 month): 39.4%
SNCV (STZ-diabetic Wistar rats [7]; 5 mg/kg daily, 1 month): 54.1 ± 0.9 m/s
SNCV improvement (STZ-diabetic Wistar rats [7]; 5 mg/kg daily, 1 month): 34.9%
effect on motor (MNCV) and sensory (SNCV) nerve conduction velocity deficits (STZ-diabetic Wistar rats [7]): did not have significant improving effect
effect on fasting blood glucose levels ([8]; 20 mg/kg daily, 3 weeks): did not affect
in vivo insulin mediated glucose uptake (glucose infusion rate, GIR) ([8]; 20 mg/kg/day for 3 weeks, euglycaemic glucose clamp, insulin infusion 6.4 mU/kg/min): 19.7 ± 1.38 mg/kg/min
